Measured values as given in US20200199681A1, “MDA-7 CANCER THERAPIES AND METHODS OF DETECTING BIOMOLECULES” (VIRGINIA COMMONWEATLH UNIVERSITY, priority 2016, published 2020).

Legend:
miR-221 = test: level of miR-221 by real time PCR (RQ-PCR, taqman probe); type: cell-based, human; conditions: for miR-221 levels: low doses alone: ATO 1 μM, hydrogen peroxide 10 μM, pyocyanin 50 μM
cancer cells = conditions: cited from earlier work
U2OS cells = conditions: cited from earlier work
[1] = test system: non-cancerous immortalized NOK cells; conditions: cited from earlier work
Hela and DU-145 cells = conditions: cited from earlier work

## CC(=O)N[C@@H](CS)C(=O)O [NAC, N-acetyl cysteine]
miR-221; MDA-MB-231 cells, pretreatment for 12 hours
  effect on down regulation of miR-221 by ROS inducer with Ad.mda-7: abrogated down regulation of miR-221
Cancer cells
  cell death mediated by mda-7/IL-24: inhibits

## C[S+]([O-])c1ccc(-c2nc(-c3ccncc3)c(-c3ccc(F)cc3)[nH]2)cc1 (stereo not drawn) [SB203580]
Cancer cells
  Ad.mda-7-induced apoptosis: inhibits

## OO [hydrogen peroxide]
miR-221; MDA-MB-231 cells
  miR-221 levels: did not alter

## Cn1c2cccc(=O)c-2nc2ccccc21 [pyocyanin]
miR-221; MDA-MB-231 cells
  miR-221 levels: did not alter

## Arsenic trioxide
miR-221; MDA-MB-231 cells
  miR-221 levels: did not alter

B1: His-MDA-7: purified recombinant His tagged MDA-7/IL-24 protein (protein, UniProt Q13007 52-206, looked up)
Interleukin-24: QEFHFGPCQVKGVVPQKLWEAFWAVKDTMQAQDNITSARLLQQEVLQNVSDAESCYLVHTLLEFYLKTVFKNYHNRTVEVRTLKSFSTLANNFVLIVSQLQPSQENEMFSIRDSAHRRFLLFRRAFKQLDVEAALTKALGEVDILLTWMQKFYKL
modifications: His tag
notes: purified recombinant His tagged MDA-7/IL-24 protein
miR-221; A549 cells (lack cognate receptor pairs)
  miR-221 expression: remained unchanged
miR-221; A549 cells overexpressing IL-20R2 or IL-22R1
  miR-221 expression: sensitive to miR-221 down regulation
miR-221; DU-145 cells (both receptor types)
  miR-221 expression: decreased

B2: Full length MDA-7/IL-24: full-length transcript with all 7 exons (protein, UniProt Q13007 1-206, looked up)
chain: MNFQQRLQSLWTLARPFCPPLLATASQMQMVVLPCLGFTLLLWSQVSGAQGQEFHFGPCQVKGVVPQKLWEAFWAVKDTMQAQDNITSARLLQQEVLQNVSDAESCYLVHTLLEFYLKTVFKNYHNRTVEVRTLKSFSTLANNFVLIVSQLQPSQENEMFSIRDSAHRRFLLFRRAFKQLDVEAALTKALGEVDILLTWMQKFYKL
modifications: full-length
notes: full-length transcript with all 7 exons
U2OS cells
  U2OS cell viability: capable of reducing U2OS cell viability
[1]
  viability of NOK cells: no effect

B3: M1: MDA-7/IL-24 deletion mutant, signal peptide deleted (protein, UniProt Q13007 52-206, looked up)
Interleukin-24: B1 Interleukin-24
modifications: signal peptide deleted
notes: MDA-7/IL-24 deletion mutant, signal peptide deleted
Hela and DU-145 cells
  tumor inhibitory effects of MDA-7/IL-24: did not disrupt the tumor inhibitory effects
